# According to BigSolDB 2.1:
smiles,measurement,setting,value
CC(C)C(=O)Nc1ccc([N+](=O)[O-])c(C(F)(F)F)c1,solubility (mole fraction),"in 1,4-dioxane, 283.15 K",0.12
same,solubility (mole fraction),"in 1,4-dioxane, 288.15 K",0.139
same,solubility (mole fraction),"in 1,4-dioxane, 293.15 K",0.16
same,solubility (mole fraction),"in 1,4-dioxane, 298.15 K",0.184
same,solubility (mole fraction),"in 1,4-dioxane, 303.15 K",0.21
same,solubility (mole fraction),"in 1,4-dioxane, 308.15 K",0.239
same,solubility (mole fraction),"in 1,4-dioxane, 313.15 K",0.272
same,solubility (mole fraction),"in 1,4-dioxane, 318.15 K",0.307
same,solubility (mole fraction),"in 1,4-dioxane, 323.15 K",0.338
same,solubility (mole fraction),"in acetonitrile, 278.15 K",0.0592
same,solubility (mole fraction),"in acetonitrile, 283.15 K",0.0749
same,solubility (mole fraction),"in acetonitrile, 288.15 K",0.0939
same,solubility (mole fraction),"in acetonitrile, 293.15 K",0.115
same,solubility (mole fraction),"in acetonitrile, 298.15 K",0.144
same,solubility (mole fraction),"in acetonitrile, 303.15 K",0.177
same,solubility (mole fraction),"in acetonitrile, 308.15 K",0.217
same,solubility (mole fraction),"in acetonitrile, 313.15 K",0.262
same,solubility (mole fraction),"in acetonitrile, 318.15 K",0.314
same,solubility (mole fraction),"in acetonitrile, 323.15 K",0.375
same,solubility (mole fraction),"in ethanol, 278.15 K",0.0365
same,solubility (mole fraction),"in ethanol, 283.15 K",0.0435
same,solubility (mole fraction),"in ethanol, 288.15 K",0.0522
same,solubility (mole fraction),"in ethanol, 293.15 K",0.0617
same,solubility (mole fraction),"in ethanol, 298.15 K",0.0728
same,solubility (mole fraction),"in ethanol, 303.15 K",0.0858
same,solubility (mole fraction),"in ethanol, 308.15 K",0.1
same,solubility (mole fraction),"in ethanol, 313.15 K",0.116
same,solubility (mole fraction),"in ethanol, 318.15 K",0.136
same,solubility (mole fraction),"in ethanol, 323.15 K",0.156
same,solubility (mole fraction),"in isopropanol, 278.15 K",0.0583
same,solubility (mole fraction),"in isopropanol, 283.15 K",0.0664
same,solubility (mole fraction),"in isopropanol, 288.15 K",0.0756
same,solubility (mole fraction),"in isopropanol, 293.15 K",0.0861
same,solubility (mole fraction),"in isopropanol, 298.15 K",0.0979
same,solubility (mole fraction),"in isopropanol, 303.15 K",0.11
same,solubility (mole fraction),"in isopropanol, 308.15 K",0.125
same,solubility (mole fraction),"in isopropanol, 313.15 K",0.14
same,solubility (mole fraction),"in isopropanol, 318.15 K",0.155
same,solubility (mole fraction),"in isopropanol, 323.15 K",0.176
same,solubility (mole fraction),"in water, 278.15 K",2.41e-07
same,solubility (mole fraction),"in water, 283.15 K",3.17e-07
same,solubility (mole fraction),"in water, 288.15 K",4.02e-07
same,solubility (mole fraction),"in water, 293.15 K",5.23e-07
same,solubility (mole fraction),"in water, 298.15 K",6.68e-07
same,solubility (mole fraction),"in water, 303.15 K",8.38e-07
same,solubility (mole fraction),"in water, 308.15 K",1.07e-06
same,solubility (mole fraction),"in water, 313.15 K",1.32e-06
same,solubility (mole fraction),"in water, 318.15 K",1.65e-06
same,solubility (mole fraction),"in water, 323.15 K",2.06e-06
